# Experiments:
# [1] = test system: Fusarium graminearum (Fgr); format: cell-based; set-up: relative uptake of SYTOX green: reference not given here
# [2] = test system: Fusarium oxysporum f. sp. vasinfectum (Fov); format: cell-based; set-up: relative uptake of SYTOX green: reference not given here
Substance,Permeability index [1],relative uptake of SYTOX green [1],Permeability index [2],relative uptake of SYTOX green [2]
"HXL001: Class I permeabilizing defensin, mature protein SEQ ID NO:25 (RHCLSQSHRFKGLCMSSNNCANVCQTENFPGGECKAEGATRKCFCKKIC; HXL001 Zea Mays)",0.9,300,–,–
"HXL002: permeabilizing defensin, mature protein SEQ ID NO:26 (RDCLSQSHKFKGACLSSSNCAAVCRTENFPDGECHTHNFARKCFCKRAC; HXL002 Triticum aestivum)",1.0,320,0.9,260
"HXL004: Class I permeabilizing defensin, mature protein SEQ ID NO:27 (RTCESQSHRFKGLCFSRSNCASVCHTEGFNGGHCRGFRRRCFCTRHC; HXL004 Nicotiana benthamiana)",1.6,500,–,–
"HXL007: permeabilizing defensin, mature protein SEQ ID NO:28 (RTCESLADTYRGPCFTDGSCDDHCKNKEHLISGRCRNDFRCWCTRNC; HXL007 Cyamopsis tetragonoloba)",–,–,1.2,350
"HXL008: Class I permeabilizing defensin, mature protein SEQ ID NO:29 (KVCTKPSKFFKGLCGTDGACTTACRKEGLHSGYCQLKGFLNSVCVCRKHC; HXL008 Picramnia pentandra)",0.9,300,0.8,225
"HXL013: Class I permeabilizing defensin, mature protein SEQ ID NO:30 (KDCLTRRHGFQGRCLFDRQCAHVCRSDGFIGGQCRGPLRKCFCSRPC; HXL013 Glycine max)",1.4,450,–,–
"HXP4: synthetic (artificial) defensin variant, SEQ ID NO:8 (RECKTESHRFKGPCITKPPCRKACISEKFTDGHCSKILRRCLCTKPC; HXP4 protein)",1.3,400,0.7,220
Hordothionin [reference compound],0.4,120,–,–
"NaD1: Class II Solanaceous defensin from flowers of ornamental tobacco Nicotiana alata (Q8GTM0) (RECKTESNTFPGICITKPPCRKACISEKFTDGHCSKILRRCLCTKPC; UniProt Q8GTM0 26-72, looked up)",1.0,320,1.0,300
"RsAFP2: defensin compared in the Fgr permeabilization assay (QKLCQRPSGTWSGVCGNNNACKNQCIRLEKARHGSCNYVFPAHKCICYFPC; UniProt P30230 30-80, looked up) [reference compound]",0.3,100,–,–
